Assay results published in US8883415B2, “Aza-benzazolium containing cyanine dyes” (Life Technologies Corporation, priority 1999, dated 2014).

Assays:
Type in all cases: binding
[1] = system: 18-base oligodeoxynucleotide sequencing primer; assay: Detecting oligonucleotides in solution; details: Excitation 540 nm/Emission 570 nm
Method: Selected dyes of the invention are dissolved in DMSO at 1-10 micromolar concentration, then diluted into 10 mM Tris-HCl, 1 mM EDTA, pH 7.5 to a final optical density of 0.1 or 0.01 at 530 nm or 540 nm. The resulting dye solutions are combined with an equal volume of an 18-base oligodeoxynucleotide sequencing primer solution at concentrations of 0.1 ng/mL to 1 microgram/mL in the same buffer. The resulting mixture is mixed gently and incubated for 5-60 minutes at room temperature, protected from light, and the sample fluorescence is measured in a fluorescence microplate reader.

[2] = system: Escherichia coli ribosomal RNA; assay: Detecting RNA in solution; details: Excitation 540 nm/Emission 570 nm
Method: Selected dyes of the invention are dissolved in DMSO at 1-10 micromolar concentration, then diluted into 10 mM Tris-HCl, 1 mM EDTA, pH 7.5 to a final optical density of 0.1 or 0.01 at 530 nm or 540 nm. These dye solutions are combined with an equal volume of Escherichia coli ribosomal RNA at concentrations ranging from 0.25 ng/mL to 1 microgram/mL in microplate wells. The resulting mixtures are mixed gently and incubated for 5-60 minutes at room temperature, protected from light, and the sample fluorescence is measured.

double-stranded DNA = assay: Detecting double-stranded DNA in solution (fluorescence microplate reader)
Method: Samples containing 0.1 ng/mL to 1 microgram/mL double-stranded DNA are prepared in 10 mM Tris-HCl, 1 mM EDTA, pH 7.5. The selected dye of the invention is dissolved in DMSO at a concentration of 1-10 mM and then diluted into the same buffer at a concentration sufficient to achieve final optical densities of 0.1 and 0.01 at 500 nm, 530 nm, 540 nm or 560 nm. Equal volumes (100 microliters each) of DNA sample solution and dye solution at each concentration are combined and mixed gently at room temperature in a microplate well.
Samples are allowed to equilibrate for 5-60 minutes, protected from light, and the fluorescence of the sample is measured using a fluorescence microplate reader. DNA concentration is determined by comparison of the sample fluorescence with a standard curve obtained with that dye for each dye concentration. The sensitivity limit of several dyes in this assay is shown (Table 5).

[3] = system: double-stranded bacteriophage λ cl857 DNA that is digested with HindIII restriction endonuclease; assay: Detecting nucleic acids in gels; details: POLAROID 667 B&W film; FOTODYNE 254 nm epi.; 1 micromolar dye
[4] = system: double-stranded bacteriophage λ cl857 DNA that is digested with HindIII restriction endonuclease; assay: Detecting nucleic acids in gels; details: 1 micromolar dye
Method: DNA samples are loaded onto agarose or polyacrylamide gels and electrophoresed using standard conditions. Selected dyes of the invention are dissolved in DMSO at a concentration of 1-10 micromolar and diluted into 0.5×TBE buffer to a final concentration of 1 micromolar dye. Gels are incubated for 20-90 minutes in this staining solution, with gentle agitation, at room temperature, protected from light. Nucleic acids are visualized by transillumination at 300 nm, followed by direct visual detection or photography using Polaroid black-and-white print film. Nucleic acids are alternatively visualized by scanning using a FMBIO II laser scanner with a 532 nm frequency-doubled YAG laser source or a charge-coupled device camera system coupled with an ultraviolet (300 nm) light source, or a visible light transilluminator.

[5] = Excitation 540 nm/Emission 570 nm
[6] = Excitation 530 nm/Emission 560 nm
[7] = Excitation 560 nm/Emission 585 nm
[8] = Excitation 500 nm/Emission 560 nm

For `COc1ccc2c(c1)/C(=C/c1nc3c(ccc[n+]3C)o1)C=C(c1ccccc1)N2C.[I-]` [Compound 19], which “Sensitivity Limit, High dye concentration (0.1 OD)” value (shortened to “Sensitivity Limit … (0.1 OD)”) [1] is on record?
Its value is under 10 ng/mL.

What about the “Sensitivity Limit, Low dye concentration (0.01 OD)” value (from here on “Sensitivity Limit … (0.01 OD)”) [1] of the same molecule?
Its value is over 10 ng/mL.

What about the “Sensitivity Limit … (0.1 OD)” value [2] of the same molecule?
Its value is 20 ng/mL.

And the “Sensitivity Limit … (0.01 OD)” value [2]?
The value was 10 ng/mL.

And the “Sensitivity Limit … (0.1 OD)” value (double-stranded DNA; [5])?
Its value is under 10 ng/mL.

And the “Sensitivity Limit … (0.01 OD)” value (double-stranded DNA; [5])?
The value was 0.5 ng/mL.

What does the source list for `CCN(CC)Cc1ccc(C2=C/C(=C\c3nc4c(ccc[n+]4C)o3)c3cc(OC)ccc3N2C)cc1.[I-]` [Compound 23]?
Sensitivity Limit, High dye concentration (0.1 OD) [1]: <10 ng/mL; Sensitivity Limit, Low dye concentration (0.01 OD) [1]: 1.0 ng/mL; Sensitivity for detecting double-stranded DNA in agarose gels [3]: 60 pg; Sensitivity for detecting double-stranded DNA in agarose gels ([4]; BOEHRINGER MANNHEIM LUMIIMAGER CCD, 300 nm trans., 520 nm em.): 830 pg; Sensitivity for detecting double-stranded DNA in agarose gels ([4]; BOEHRINGER MANNHEIM LUMIIMAGER CCD, 300 nm trans., 545 nm em): 100 pg; Sensitivity for detecting double-stranded DNA in agarose gels ([4]; HITACHI FMBIO II laser scanner, 532 nm freq.-doubled YAG laser): 5 pg; Sensitivity for detecting double-stranded DNA in agarose gels ([4]; POLAROID 667 B&W film, DARK READER visible light box): 240 pg; Sensitivity for detecting double-stranded DNA in agarose gels ([4]; POLAROID 667 B&W film, FOTODYNE 300 nm trans.): 120 pg; Sensitivity Limit, High dye concentration (0.1 OD) [2]: 200 ng/mL; Sensitivity Limit, Low dye concentration (0.01 OD) [2]: 2.5 ng/mL; Sensitivity Limit, High dye concentration (0.1 OD) (double-stranded DNA; [5]): <10 ng/mL; Sensitivity Limit, Low dye concentration (0.01 OD) (double-stranded DNA; [5]): 0.2 ng/mL

`CCN(CC)C1=C/C(=C\c2nc3c(ccc[n+]3C)o2)c2ccccc2N1c1ccccc1` [Compound 30] was tested. Which “Sensitivity Limit … (0.1 OD)” value (double-stranded DNA; [6]) did it give?
Its value is 10 ng/mL.

What about the “Sensitivity Limit … (0.01 OD)” value (double-stranded DNA; [6]) of the same molecule?
The value was 1.0 ng/mL.

With `CN1C=C/C(=C\c2nc3c(cc(Cl)c[n+]3C)s2)c2ccccc21.[I-]` [Compound 37] as the molecule, how does the “Sensitivity Limit … (0.1 OD)” value (double-stranded DNA; [7]) read?
Its value is 10 ng/mL.

What about the “Sensitivity Limit … (0.01 OD)” value (double-stranded DNA; [7]) of the same molecule?
Its value is 2.0 ng/mL.

Which “Sensitivity Limit … (0.1 OD)” value (double-stranded DNA; [7]) does the source give for `CN1C=C/C(=C\c2nc3c(cc(Cl)c[n+]3C)s2)c2ccccc21.[I-]` [Compound 38] here?
The value was 200 ng/mL.

What about the “Sensitivity Limit … (0.01 OD)” value (double-stranded DNA; [7]) of the same molecule?
The value was 5.0 ng/mL.

For `CN1C=C/C(=C\c2nc3c(cc(Cl)c[n+]3C)s2)c2ccccc21.[I-]` [Compound 35], which “Sensitivity Limit … (0.1 OD)” value (double-stranded DNA; [5]) is on record?
The value was 10 ng/mL.

What about the “Sensitivity Limit … (0.01 OD)” value (double-stranded DNA; [5]) of the same molecule?
Its value is 0.5 ng/mL.

Which “Sensitivity Limit … (0.1 OD)” value (double-stranded DNA; [7]) does the source give for `CN1C=C/C(=C\c2nc3c(cc(Cl)c[n+]3C)s2)c2ccccc21.[I-]` [Compound 40] here?
Its value is 10 ng/mL.

And the “Sensitivity Limit … (0.01 OD)” value (double-stranded DNA; [7])?
Its value is 1.0 ng/mL.

Which results are given for `CN1C=C/C(=C\c2nc3c(ccc[n+]3C)o2)c2ccccc21.Cc1ccc(S(=O)(=O)[O-])cc1` [Compound 48]?
Sensitivity Limit, High dye concentration (0.1 OD) (double-stranded DNA; [8]): 10 ng/mL; Sensitivity Limit, Low dye concentration (0.01 OD) (double-stranded DNA; [8]): >10 ng/mL

With `CN1C=C/C(=C\c2sc3ncccc3[n+]2C)c2ccccc21.[I-]` [Compound 33] as the molecule, how does the “Sensitivity Limit … (0.1 OD)” value (double-stranded DNA; [5]) read?
Its value is 100 ng/mL.

What about the “Sensitivity Limit … (0.01 OD)” value (double-stranded DNA; [5]) of the same molecule?
The value was over 10 ng/mL.

With `C[n+]1cccc2oc(/C=C3\C=C(c4ccccc4)N(c4ccccc4)c4ccccc43)nc21.[I-]` [Compound 17] as the molecule, how does the “Sensitivity Limit … (0.1 OD)” value (double-stranded DNA; [6]) read?
The value was under 10 ng/mL.

What about the “Sensitivity Limit … (0.01 OD)” value (double-stranded DNA; [6]) of the same molecule?
Its value is 2.0 ng/mL.

For `C[n+]1cccc2oc(/C=C3\C=C(Cl)N(c4ccccc4)c4ccccc43)nc21` [Compound 29], which “Sensitivity Limit … (0.1 OD)” value (double-stranded DNA; [5]) is on record?
The value was 100 ng/mL.

And the “Sensitivity Limit … (0.01 OD)” value (double-stranded DNA; [5])?
The value was 2.0 ng/mL.
